Our source for the EC50 values is patent US12595258B2, “Heterocyclic derivatives, pharmaceutical compositions and their use in the treatment or amelioration of cancer” (TOLREMO THERAPEUTICS AG, priority 2022, dated 2026).

The target of test [1] is T1, CBP bromodomain (Homo sapiens, UniProt Q92793).
T1 construct: purchased Cayman chemicals 600850
Put plainly: CBP bromodomain binding assay (TR-FRET). The settings on record: TR-FRET (Cayman kit 600850), 1 hour incubation at room temperature; read-out: Assay 2. How it is done:
CBP Bromodomain Binding Assay (TR-FRET)
Compounds solutions of 10 mM in DMSO were pre-diluted in DSMO to 25× stock solutions in DMSO. These were then diluted down to 4× in assay buffer. A dilution series in assay buffer was performed keeping the DMSO concentration stable. 5 μl compound in assay buffer was transferred into the assay plate (provided by assay kit) and the TR-FRET assay Cayman chemicals; 600850) was performed using the provider's instructions. After 1 hour incubation at room temperature in the darks, assay plates were read in a Tecan M1000 plate reader or a Tecan Sparks reader using the TR-FRET mode (top read; excitation 340 nm bandwidth 20 nM; emission 620 nm bandwidth 7 nM; gain optimal determined for the first well, number of flashes: 5; flash frequency 100 Hz; integration time: 500 μs, lag time: 100 μs, room temperature). The TR-FRET ratio was calculated by dividing 670 nm emission by 620 nm emission. Values were log transformed and non-linear regression with variable slope (4 parameters) was used to fit values to a dose-response curve to evaluate EC50 values.
In general terms: Time-resolved FRET reads energy transfer from a long-lived donor to a nearby acceptor.

For test [2], the system named is multiple myeloma cell line OPM-2. Put plainly: Multiple myeloma cellular efficacy (PrestoBlue cell proliferation/survival assay). It counts as cell-based. The settings on record: Homo sapiens, 96 h; OPM-2 cells, 4 days treatment, PrestoBlue signal relative to vehicle; read-out: Assay 1. On the procedure: Multiple Myeloma Cellular Efficacy:
10000 OPM-2 (ACC50; DSMZ) were plated into wells of a 384 well plate (Greiner 781090). Cells were treated for 4 days with a dose range of compound or vehicle. At the end of the experiment cells were stained directly with PrestoBlue (ThermoFisher Scientific; A13262) for 2 hours at 37° C. in a humidified incubator according to manufactor's instruction. To assess the relative cell number the PrestoBlue signal was measured using either a TecanM1000Pro reader or a Tecan Sparks reader following the manufactor's instructions. Background (no cells) values were subtracted and set in relation to the vehicle control. To assess the EC50 of each compound the relative fluorescence value was plotted against the compound concentration after log transformation. Data were fitted in a nonlinear manner with a variable slope (four parameters) using graphpad prism software. Cellular efficacy of compounds was evaluated in the multiple myeloma cell line OPM-2 using the cell proliferation/survival assay PrestoBlue. EC50 values are classified as indicated below.

T1 sequence (Q92793 1085-1192 limits assumed): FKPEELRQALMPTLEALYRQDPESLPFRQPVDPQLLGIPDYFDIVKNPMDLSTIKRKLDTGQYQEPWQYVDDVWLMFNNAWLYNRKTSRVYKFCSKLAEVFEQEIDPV

`CC(=O)N1C[C@H](c2nc(Nc3cc(F)cc(-c4cn[nH]c4)c3)cc(-c3cnccn3)n2)CC[C@@H]1C` [Compound 002, 1-((2S,5R)-5-(4-((3-fluoro-5-(1H-pyrazol-4-yl)phenyl)amino)-6-(pyrazin-2-yl)pyrimidin-2-yl)-2-methylpiperidin-1-yl)ethan-1-one]: the EC50 in test [1] came out at 23 nM; in test [2], 25 nM. For the compound `CC(=O)N1C[C@H](c2nc(Nc3cccc(-c4cn(C5COC5)nn4)c3)cc(-c3cnccn3)n2)CC[C@@H]1C` [Compound 008], the EC50 in test [2] was 28 nM. Regarding `CC(=O)N1C[C@H](c2nc(Nc3cccc(-c4cn(C)nc4C)c3)cc(-c3cnccn3)n2)CC[C@@H]1C` [Compound 004], the EC50 in test [1] is 128 nM.

Take `CC(=O)N1C[C@H](c2nc(Nc3cccc(-c4cnn(C)c4C)c3)cc(-c3cnccn3)n2)CC[C@@H]1C` [Compound 005]: the EC50 in test [2] is 193 nM.

`CC(=O)N1C[C@H](c2nc(Nc3cc(-c4cn(C)nn4)ccc3F)cc(-c3cnccn3)n2)CC[C@@H]1C` [Compound 020]: in test [2], the EC50 is 864 nM. On to `CCn1cc(-c2cccc(Nc3cc(-c4cnccn4)nc([C@@H]4CC[C@H](C)N(C(C)=O)C4)n3)c2)nn1` [Compound 011, 1-((2S,5R)-5-(4-((3-(1-ethyl-1H-1,2,3-triazol-4-yl)phenyl)amino)-6-(pyrazin-2-yl)pyrimidin-2-yl)-2-methylpiperidin-1-yl)ethan-1-one], for which, in test [2], the EC50 is 6 nM.

Turning to `CC(=O)N1C[C@H](c2nc(Nc3cc(F)cc(-c4cn(C5COC5)nn4)c3)cc(-c3cnccn3)n2)CC[C@@H]1C` [Compound 022, 1-((2S,5R)-5-(4-((3-fluoro-5-(1-(oxetan-3-yl)-1H-1,2,3-triazol-4-yl)phenyl)amino)-6-(pyrazin-2-yl)pyrimidin-2-yl)-2-methylpiperidin-1-yl)ethan-1-one], the EC50 in test [2] was 13 nM.

Regarding `CC(=O)N1C[C@H](c2nc(Nc3cc(F)cc(-c4cn(C)cn4)c3)cc(-c3cnccn3)n2)CC[C@@H]1C` [Compound 001, 1-((2S,5R)-5-(4-((3-fluoro-5-(1-methyl-1H-imidazol-4-yl)phenyl)amino)-6-(pyrazin-2-yl)pyrimidin-2-yl)-2-methylpiperidin-1-yl)ethan-1-one], the EC50 in test [1] is 7 nM; in test [2], 1 nM. Turning to `CC(=O)N1C[C@H](c2nc(Nc3cccc(-c4cn(C)nn4)c3F)cc(-c3cnccn3)n2)CC[C@@H]1C` [Compound 019, 1-((2S,5R)-5-(4-((2-fluoro-3-(1-methyl-1H-1,2,3-triazol-4-yl)phenyl)amino)-6-(pyrazin-2-yl)pyrimidin-2-yl)-2-methylpiperidin-1-yl)ethan-1-one], the EC50 in test [1] was 6 nM; in test [2] it was 1 nM.

Turning to `CC(=O)N1C[C@H](c2nc(Nc3ccc(F)c(-c4cn(C)nn4)c3)cc(-c3cnccn3)n2)CC[C@@H]1C` [Compound 018, 1-((2S,5R)-5-(4-((4-fluoro-3-(1-methyl-1H-1,2,3-triazol-4-yl)phenyl)amino)-6-(pyrazin-2-yl)pyrimidin-2-yl)-2-methylpiperidin-1-yl)ethan-1-one], the EC50 was found to be 22 nM in test [1] and 63 nM in test [2]. Take `CC(=O)N1C[C@H](c2nc(Nc3cccc(-c4nnn(C)c4C)c3)cc(-c3cnccn3)n2)CC[C@@H]1C` [Compound 015, 1-((2S,5R)-5-(4-((3-(1,5-dimethyl-1H-1,2,3-triazol-4-yl)phenyl)amino)-6-(pyrazin-2-yl)pyrimidin-2-yl)-2-methylpiperidin-1-yl)ethan-1-one]: the EC50 in test [2] was 109 nM. With `CC(=O)N1C[C@H](c2nc(Nc3cc(F)cc(-c4nnc(C)o4)c3)cc(-c3cnccn3)n2)CC[C@@H]1C` [Compound 006, 1-((2S,5R)-5-(4-((3-fluoro-5-(5-methyl-1,3,4-oxadiazol-2-yl)phenyl)amino)-6-(pyrazin-2-yl)pyrimidin-2-yl)-2-methylpiperidin-1-yl)ethan-1-one], the EC50 was found to be 3 nM in test [1] and 6 nM in test [2].

As to `CC(=O)N1C[C@H](c2nc(Nc3cccc(-c4nn(C)nc4C)c3)cc(-c3cnccn3)n2)CC[C@@H]1C` [Compound 016, 1-((2S,5R)-5-(4-((3-(2,5-dimethyl-2H-1,2,3-triazol-4-yl)phenyl)amino)-6-(pyrazin-2-yl)pyrimidin-2-yl)-2-methylpiperidin-1-yl)ethan-1-one], the EC50 in test [2] turned out to be 142 nM. The same measure, in the same setting: for `CC(=O)N1C[C@H](c2nc(Nc3ccc(C)c(-c4cn(C)nn4)c3)cc(-c3cnccn3)n2)CC[C@@H]1C` [Compound 012, 1-((2S,5R)-2-methyl-5-(4-((4-methyl-3-(1-methyl-1H-1,2,3-triazol-4-yl)phenyl)amino)-6-(pyrazin-2-yl)pyrimidin-2-yl)piperidin-1-yl)ethan-1-one] the value was 261 nM. In the case of `CC(=O)N1C[C@H](c2nc(Nc3cccc(-c4cn(C)nn4)c3C)cc(-c3cnccn3)n2)CC[C@@H]1C` [Compound 013], the EC50 in test [2] turned out to be 32 nM. The same measure, in the same setting: the value for `CC(=O)N1C[C@H](c2nc(Nc3cc(Cl)cc(-c4cn(C)nn4)c3)cc(-c3cnccn3)n2)CC[C@@H]1C` [Compound 021, 1-((2S,5R)-5-(4-((3-chloro-5-(1-methyl-1H-1,2,3-triazol-4-yl)phenyl)amino)-6-(pyrazin-2-yl)pyrimidin-2-yl)-2-methylpiperidin-1-yl)ethan-1-one] was 5 nM; that for `CC(=O)N1C[C@H](c2nc(Nc3cccc(-c4cnnn4C)c3)cc(-c3cnccn3)n2)CC[C@@H]1C` [Compound 017, 1-((2S,5R)-2-methyl-5-(4-((3-(1-methyl-1H-1,2,3-triazol-5-yl)phenyl)amino)-6-(pyrazin-2-yl)pyrimidin-2-yl)piperidin-1-yl)ethan-1-one] was 458 nM. Same read-out and setting: for `CC(=O)N1C[C@H](c2nc(Nc3cccc(-c4cn(C(C)C)nn4)c3)cc(-c3cnccn3)n2)CC[C@@H]1C` [Compound 007, 1-((2S,5R)-5-(4-((3-(1-isopropyl-1H-1,2,3-triazol-4-yl)phenyl)amino)-6-(pyrazin-2-yl)pyrimidin-2-yl)-2-methylpiperidin-1-yl)ethan-1-one] the value was 50 nM. With `CC(=O)N1C[C@H](c2nc(Nc3cc(C)cc(-c4cn(C)nn4)c3)cc(-c3cnccn3)n2)CC[C@@H]1C` [Compound 014, 1-((2S,5R)-2-methyl-5-(4-((3-methyl-5-(1-methyl-1H-1,2,3-triazol-4-yl)phenyl)amino)-6-(pyrazin-2-yl)pyrimidin-2-yl)piperidin-1-yl)ethan-1-one], the EC50 in test [1] amounted to 7 nM; in test [2] it was 5 nM. Consider `CC(=O)N1C[C@H](c2nc(Nc3cc(Cl)cc(-c4c[nH]nn4)c3)cc(-c3cnccn3)n2)CC[C@@H]1C` [Compound 010, 1-((2S,5R)-5-(4-((3-chloro-5-(1H-1,2,3-triazol-4-yl)phenyl)amino)-6-(pyrazin-2-yl)pyrimidin-2-yl)-2-methylpiperidin-1-yl)ethan-1-one], for which, in test [2], the EC50 stood at 45 nM. Same read-out and setting: the value for `CC(=O)N1C[C@H](c2nc(Nc3cc(F)cc(-c4c[nH]nn4)c3)cc(-c3cnccn3)n2)CC[C@@H]1C` [Compound 009, 1-((2S,5R)-5-(4-((3-fluoro-5-(1H-1,2,3-triazol-4-yl)phenyl)amino)-6-(pyrazin-2-yl)pyrimidin-2-yl)-2-methylpiperidin-1-yl)ethan-1-one] was 37 nM. With `CC(=O)N1C[C@H](c2nc(Nc3cccc(-c4cn(C5COC5)nn4)c3F)cc(-c3cnccn3)n2)CC[C@@H]1C` [Compound 023], the EC50 in test [1] is 65 nM; in test [2] it was 7 nM.
